Measured values reported in ChEMBL document CHEMBL5723585, “Data for DCP probe JNJ-54082730” (2024).

Assays:
[1] = target: cGMP-dependent 3',5'-cyclic phosphodiesterase (Homo sapiens, UniProt O00408); test: Scintillation proximity assay (PDE2A) ( Mean (95% Confidence Interval) = 0.8 -1 nM; Ki = 0.7 nM)
[2] = target: cGMP-dependent 3',5'-cyclic phosphodiesterase (Rattus norvegicus) (UniProt Q01062); test: Target occupancy in striatum ( p.o.dose, 1 h); format: organism-based
[3] = target: cAMP and cAMP-inhibited cGMP 3',5'-cyclic phosphodiesterase 10A (Homo sapiens, UniProt Q9Y233); test: Scintillation proximity assay (PDE10A)
[4] = target: Phosphodiesterase 3 (Homo sapiens, UniProt Q14432+Q13370); test: Scintillation proximity assay (PDE3); format: protein assay

cGMP-dependent 3',5'-cyclic phosphodiesterase, sequence (O00408 whole entry): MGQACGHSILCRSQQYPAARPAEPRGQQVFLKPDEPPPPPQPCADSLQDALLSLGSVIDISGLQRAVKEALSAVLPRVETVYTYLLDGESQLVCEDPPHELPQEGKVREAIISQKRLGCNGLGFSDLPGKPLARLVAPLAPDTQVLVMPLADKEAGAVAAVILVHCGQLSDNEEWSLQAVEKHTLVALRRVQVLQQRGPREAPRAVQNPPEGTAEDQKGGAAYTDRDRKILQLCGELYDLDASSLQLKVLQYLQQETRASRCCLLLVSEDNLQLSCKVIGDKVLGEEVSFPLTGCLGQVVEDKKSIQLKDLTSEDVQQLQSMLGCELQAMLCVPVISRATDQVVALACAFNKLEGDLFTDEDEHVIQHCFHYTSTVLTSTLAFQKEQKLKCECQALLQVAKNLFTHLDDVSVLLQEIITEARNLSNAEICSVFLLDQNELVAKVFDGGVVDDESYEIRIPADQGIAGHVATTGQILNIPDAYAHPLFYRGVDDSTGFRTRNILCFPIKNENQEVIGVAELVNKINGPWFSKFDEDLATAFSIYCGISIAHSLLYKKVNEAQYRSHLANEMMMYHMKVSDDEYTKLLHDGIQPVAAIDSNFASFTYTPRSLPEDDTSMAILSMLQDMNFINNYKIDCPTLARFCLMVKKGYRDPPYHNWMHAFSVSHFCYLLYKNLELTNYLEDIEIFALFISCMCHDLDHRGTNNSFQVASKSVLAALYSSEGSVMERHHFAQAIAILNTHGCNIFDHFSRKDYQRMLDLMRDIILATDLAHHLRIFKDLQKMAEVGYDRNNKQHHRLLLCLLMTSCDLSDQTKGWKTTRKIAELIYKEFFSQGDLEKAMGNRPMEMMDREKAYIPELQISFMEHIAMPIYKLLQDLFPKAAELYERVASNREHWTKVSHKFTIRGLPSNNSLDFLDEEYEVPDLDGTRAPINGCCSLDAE
cGMP-dependent 3',5'-cyclic phosphodiesterase (Rattus norvegicus), sequence (Q01062 whole entry): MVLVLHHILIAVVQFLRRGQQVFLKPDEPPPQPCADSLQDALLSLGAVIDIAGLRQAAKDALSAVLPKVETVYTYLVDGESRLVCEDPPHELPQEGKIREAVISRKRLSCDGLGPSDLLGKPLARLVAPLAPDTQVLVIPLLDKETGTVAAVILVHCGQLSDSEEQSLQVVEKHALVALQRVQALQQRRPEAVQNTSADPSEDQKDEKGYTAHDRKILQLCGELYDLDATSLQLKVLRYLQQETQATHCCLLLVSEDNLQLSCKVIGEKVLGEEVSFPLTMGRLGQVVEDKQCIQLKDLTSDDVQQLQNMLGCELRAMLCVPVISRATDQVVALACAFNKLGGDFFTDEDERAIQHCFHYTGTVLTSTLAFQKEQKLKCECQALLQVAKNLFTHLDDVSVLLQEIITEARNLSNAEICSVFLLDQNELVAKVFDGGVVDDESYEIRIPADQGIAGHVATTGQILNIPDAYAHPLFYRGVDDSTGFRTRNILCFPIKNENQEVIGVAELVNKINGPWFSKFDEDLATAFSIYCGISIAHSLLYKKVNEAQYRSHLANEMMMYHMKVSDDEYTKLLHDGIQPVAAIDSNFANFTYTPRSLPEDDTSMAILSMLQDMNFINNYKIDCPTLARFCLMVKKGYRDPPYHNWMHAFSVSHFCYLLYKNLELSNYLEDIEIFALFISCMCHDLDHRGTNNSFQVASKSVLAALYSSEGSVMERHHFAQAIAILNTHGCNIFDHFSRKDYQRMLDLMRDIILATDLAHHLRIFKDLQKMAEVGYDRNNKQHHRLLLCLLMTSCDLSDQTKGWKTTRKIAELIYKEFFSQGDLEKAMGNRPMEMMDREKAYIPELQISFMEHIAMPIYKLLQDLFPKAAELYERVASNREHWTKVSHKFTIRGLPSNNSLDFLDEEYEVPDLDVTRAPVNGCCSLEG
cAMP and cAMP-inhibited cGMP 3',5'-cyclic phosphodiesterase 10A, sequence (Q9Y233 whole entry): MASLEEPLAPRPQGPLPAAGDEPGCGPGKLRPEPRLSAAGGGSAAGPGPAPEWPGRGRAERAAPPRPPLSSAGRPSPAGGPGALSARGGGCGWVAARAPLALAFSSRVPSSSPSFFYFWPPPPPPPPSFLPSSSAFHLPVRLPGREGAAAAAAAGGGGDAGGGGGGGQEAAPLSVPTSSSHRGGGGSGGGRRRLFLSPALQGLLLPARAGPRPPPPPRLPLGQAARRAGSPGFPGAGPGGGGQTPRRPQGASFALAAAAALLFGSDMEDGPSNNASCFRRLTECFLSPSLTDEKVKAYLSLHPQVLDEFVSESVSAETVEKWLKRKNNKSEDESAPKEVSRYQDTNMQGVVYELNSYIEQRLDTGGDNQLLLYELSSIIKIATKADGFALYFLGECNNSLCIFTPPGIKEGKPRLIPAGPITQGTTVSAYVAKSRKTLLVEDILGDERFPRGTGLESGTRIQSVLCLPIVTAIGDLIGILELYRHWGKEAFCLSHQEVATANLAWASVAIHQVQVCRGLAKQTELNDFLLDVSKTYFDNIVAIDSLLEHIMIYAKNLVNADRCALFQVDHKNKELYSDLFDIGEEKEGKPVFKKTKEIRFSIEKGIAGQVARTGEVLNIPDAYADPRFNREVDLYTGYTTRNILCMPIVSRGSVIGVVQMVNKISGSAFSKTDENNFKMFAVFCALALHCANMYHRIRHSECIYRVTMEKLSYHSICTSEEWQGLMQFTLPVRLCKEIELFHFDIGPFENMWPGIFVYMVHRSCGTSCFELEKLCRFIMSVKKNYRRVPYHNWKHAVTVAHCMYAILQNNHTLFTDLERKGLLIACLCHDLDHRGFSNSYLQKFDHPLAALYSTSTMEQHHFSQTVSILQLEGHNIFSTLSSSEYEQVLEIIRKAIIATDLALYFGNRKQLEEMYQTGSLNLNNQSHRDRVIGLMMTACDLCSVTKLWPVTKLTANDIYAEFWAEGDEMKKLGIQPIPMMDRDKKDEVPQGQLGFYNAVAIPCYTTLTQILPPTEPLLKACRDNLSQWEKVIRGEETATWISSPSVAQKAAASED

Cc1cc(C(=O)N2CC[C@H](C)[C@@H](c3cc(C(F)F)nc4ncnn34)C2)cc(C)n1
IC50 [1]: 0.097 µM (not active)
ED50 [2]: > 80 mg/kg
IC50 [3]: > 10 µM (not active)
IC50 [4]: > 10 µM
